For 52 compounds, EC50 results are on record in BindingDB's records for doi:10.7270/Q2CN728N (Nmmlsc, 2008).

For the first assay, the target named is T1, Bcl-2-related protein A1 (Homo sapiens, UniProt Q16548).
T1 sequence (Q16548 whole entry): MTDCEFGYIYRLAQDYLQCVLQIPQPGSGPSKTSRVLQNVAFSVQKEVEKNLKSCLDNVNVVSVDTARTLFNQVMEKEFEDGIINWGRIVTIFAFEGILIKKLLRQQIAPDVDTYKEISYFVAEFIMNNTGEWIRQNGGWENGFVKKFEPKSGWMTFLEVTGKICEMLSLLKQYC
Kind of assay: Bfl-1/Bim complex disruptors – biochemical, multiplexed, bead-based flow cytometry, dose response (AID 1320). The conditions noted are these: inactive by the depositor's call; pH 7.4; 4 °C.
Take `CN1CCN(C2=C(Cl)C(=O)C(c3cnc(N4CCCCC4)s3)=C(Cl)C2=O)CC1`: the EC50 was found to be 0.01 µM. In other words, the double-digit nanomolar range.
Still for that read-out and setting: for `Cc1ccc(-c2ccc(/C=C/C(=O)c3ccccc3)o2)cc1` the value was 7.03 µM; for `CCN(CC)c1ccc(-c2nn3c(-c4ccccc4OC)nnc3s2)cc1`, 40.8 µM.
On the same count and under the same terms, then `CCN(CC)c1ccc(-c2nn3c(-c4n[nH]c5c4CCC5)nnc3s2)cc1`, with 28.6 µM; and `CN(C)c1ncc(C2=C(Cl)C(=O)C(N3CCCC3)=C(Cl)C2=O)s1`, with 0.04 µM; and `O=C(/C=C/c1ccc(-c2ccccc2[N+](=O)[O-])o1)c1ccccc1`, with 2.61 µM.
On the same count and under the same terms, then `c1ccc(C2=Nc3cccc4cccc(c34)N2)cc1`, with 26.2 µM; and `CCN(CC)c1ccc(NC(=O)c2ccccc2Br)cc1S(=O)(=O)Nc1ccccc1OC`, with 5.4 µM; and `Cc1ccc(/C=C2/NC(=O)N(Cc3ccc(Br)cc3)C2=O)o1`, with 5.22 µM.
In turn, `CCOC(=O)c1c(NC(C)=O)sc2c(O)c(Br)cc(Br)c12` showed an EC50 of 17.8 µM.
On the same count and under the same terms, for `COc1ccc(N2C(=O)C(=Cc3cccs3)NC2=S)cc1` the value was 3.86 µM.
The same measure, in the same setting: for `O=C1CSc2ccc(C(=O)Nc3cccc(S(=O)(=O)Nc4ccc(Br)cc4)c3)cc2N1` the value was 5.81 µM.
On the same count and under the same terms, for `CCOc1ccc(-n2cc(-c3ccc(OC)c(OC)c3)[nH]c2=S)cc1` the value was 0.68 µM.
`CCOC(=O)c1ccc(/N=c2/ssnc2Cl)cc1` showed an EC50 of 37.5 µM.
The compound `Cc1ccc(-c2nc3c(c(=O)[nH]c(=O)n3Cc3ccccc3)n2Cc2ccccc2)o1` returned a 50% effective concentration (EC50) of 8.43 µM.
Turning to `CC1N(C)c2cccc3cccc(c23)N1C` [1,2,3-trimethyl-2,3-dihydro-1H-perimidine], the EC50 was found to be 2.46 µM.
Same read-out and setting: for `Cc1c(/N=C2\C=CC(=O)c3ccccc32)c(=O)n(-c2ccccc2)n1C` [1,5-dimethyl-4-[(4-oxo-1-naphthalenylidene)amino]-2-phenyl-3-pyrazolone] the value was 53.5 µM; for `Cc1ccc(O)c(NC2=C(Cl)C(=O)N(Cc3ccccc3)C2=O)c1` [1-benzyl-3-chloro-4-(2-hydroxy-5-methylanilino)pyrrole-2,5-dione], 13.8 µM.
The same measure, in the same setting: for `Cc1ccc(C(=O)/C=C/c2ccc(-c3ccc(C)cc3)o2)cc1` [1-p-Tolyl-3-(5-p-tolyl-furan-2-yl)-propenone] the value was 3.23 µM; for `COc1ccc(/C=C(/C(=O)c2cccs2)N2C=CC=CC2=C(C#N)C#N)cc1` [2-[1-[(Z)-1-(4-methoxyphenyl)-3-oxidanylidene-3-thiophen-2-yl-prop-1-en-2-yl]pyridin-2-ylidene]propanedinitrile], 2.23 µM.

Still in this assay, the particulars now being: pH 7.4; 4 °C.
As for `CN1CCc2cccc3c2[C@@H]1Cc1ccc(O)c(O)c1-3`, the midpoint of the response, the EC50, lay at 15.1 µM. In other words, the double-digit micromolar range.
In the case of `O=C(Nc1ccc2nc(-c3ccco3)c(-c3ccco3)nc2c1)N1CCCCCC1`, the EC50 was 0.92 µM.
Still for that read-out and setting: then `CCN1C(=O)/C(=C/C=C2\C=CN(CC)c3ccccc32)SC1=S`, with 3.6 µM; and `CCC(/C=C1\Sc2ccc(OC)cc2N1CCO)=C\c1sc2ccc(OC)cc2[n+]1CCO`, with 20.3 µM; and `N#Cc1cc(-c2ccccc2)nn1-c1ccccc1`, with 2.02 µM.
In the case of `Cc1ccc(-c2cc(-c3ccc(F)cc3)c(C#N)c(N)n2)o1`, the EC50 was 5.2 µM.
Still for that read-out and setting: for `Cc1c(N=C2C(=O)N(c3ccccc3Cl)C(=O)C2Cl)c(=O)n(-c2ccccc2)n1C` (configuration not stated) the value was 6.04 µM; for `CCN=c1scc(C)n1N=Cc1ccc(O)c(O)c1O`, 19.6 µM; for `Cc1cccc(N2C(=S)C(C#N)C(=O)NC2c2cccs2)c1` (configuration not stated), 18.3 µM.
On the same count and under the same terms, then `O=C1C(Cl)=C(N2CCN(c3ccccc3[N+](=O)[O-])CC2)C(=O)c2ccccc21`, with 0.36 µM; and `c1ccc(-c2nc(N3CCOCC3)[s+]n2-c2ccccc2)cc1`, with 0.05 µM; and `Cc1ccc(C)c(/C=C/C(=O)c2ccccc(=O)c2O)c1`, with 8.74 µM.
Compound `O=C(NC1=C(Nc2ccc(Cl)cc2)C(=O)c2ccccc2C1=O)c1ccccc1` yielded an EC50 of 2.91 µM.
The same measure, in the same setting: then `CCN(CC)S(=O)(=O)c1cccc(C(=O)NN=Cc2ccc(O)c(O)c2O)c1`, with 6.41 µM; and `O=C(Nc1ccc2nc(-c3ccco3)c(-c3ccco3)nc2c1)N1CCN(c2ccccn2)CC1`, with 5.94 µM.
Turning to `O=C(c1ccccc1)c1ccc2nc(-c3ccco3)c(-c3ccco3)nc2c1`, the EC50 is 9.94 µM.
As for `CCOc1ccccc1CNc1ccc(O)cc1`, it took 1.13 µM to reach a half-maximal effect (EC50).
Turning to `CCN1/C(=C/c2ccc3cc(C)ccc3[n+]2CC)Sc2cc(C)c(C)cc21`, the EC50 stood at 16.9 µM.
As to `COc1ccc(-n2cc(-c3ccc(OC)c(OC)c3)[nH]c2=S)cc1`, a half-maximal effect (EC50) was put at 1.58 µM.
Same read-out and setting: then `O=c1[nH]c(O)c(Cc2ccc(-c3cc(Cl)ccc3[N+](=O)[O-])o2)c(=O)[nH]1`, with 1.24 µM; and `O=C(NCCCO)Nc1ccc2nc(-c3ccco3)c(-c3ccco3)nc2c1` [1-[2,3-bis(2-furanyl)-6-quinoxalinyl]-3-(3-hydroxypropyl)urea], with 1.25 µM.
Compound `O=C(NCc1ccccc1)c1ccc2nc(-c3ccco3)c(-c3ccco3)nc2c1` [2,3-bis(furan-2-yl)-N-(phenylmethyl)quinoxaline-6-carboxamide] had an EC50 of 3.06 µM.
The same measure, in the same setting: then `COc1ccc2nc(-c3ccco3)c(-c3ccco3)nc2c1` [2,3-di-2-furyl-6-methoxyquinoxaline], with 4.93 µM; and `O=C(NCc1ccccn1)c1ccc2nc(-c3ccco3)c(-c3ccco3)nc2c1` [2,3-di-2-furyl-N-(pyridin-2-ylmethyl)quinoxaline-6-carboxamide], with 3.66 µM.
The same measure, in the same setting: for `O=C(Nc1ccccc1)c1ccc2nc(-c3ccco3)c(-c3ccco3)nc2c1` [2,3-di-2-furyl-N-phenyl-6-quinoxalinecarboxamide] the value was 7.56 µM.
Still for that read-out and setting: then `Cc1cccc(NC2=NC(=O)C(=CC=Cc3ccco3)S2)c1C` [2-(2,3-Dimethyl-phenylamino)-5-[(E)-3-furan-2-yl-prop-2-en-(Z)-ylidene]-thiazol-4-one], with 3.17 µM.
On to `c1coc(C2=Nc3cccc4cccc(c34)N2)c1` [2-(2-furanyl)-1H-perimidine], for which the midpoint of the response, the EC50, lay at 6.32 µM.
Same read-out and setting: then `Cc1cc(C)c(S(=O)(=O)N=C2C=C(SCC(=O)O)C(=O)c3ccccc32)cc1C` [2-[1-oxidanylidene-4-(2,4,5-trimethylphenyl)sulfonylimino-naphthalen-2-yl]sulfanylethanoic acid], with 8.24 µM; and `COc1cc(CNc2ccc3[nH]c(=O)[nH]c3c2)cc(Br)c1OCC(=O)NC(C)(C)C` [2-[2-bromo-6-methoxy-4-[[(2-oxo-1,3-dihydrobenzimidazol-5-yl)amino]methyl]phenoxy]-N-tert-butylacetamide], with 0.87 µM.
Same read-out and setting: then `Cc1ccc(/C=C/C2=Cc3c(sc(NC(=O)CSc4nnc(N)[nH]4)c3C#N)C(C)(C)C2)o1` [2-[(5-azanyl-1H-1,2,4-triazol-3-yl)sulfanyl]-N-[3-cyano-7,7-dimethyl-5-[(E)-2-(5-methylfuran-2-yl)ethenyl]-6H-1-benzothiophen-2-yl]ethanamide], with 4.19 µM; and `Cc1nnc(Sc2cc(NCCO)c([N+](=O)[O-])c3nonc23)s1` [2-[[7-[(5-methyl-1,3,4-thiadiazol-2-yl)thio]-4-nitro-2,1,3-benzoxadiazol-5-yl]amino]ethanol], with 0.52 µM.
In the case of `CCOC(=O)CSC1=NC(=O)/C(=C/c2ccc(OC)cc2)S1` [2-[[(5Z)-5-[(4-methoxyphenyl)methylidene]-4-oxo-2-thiazolyl]thio]acetic acid ethyl ester], the midpoint of the response, the EC50, lay at 1.12 µM.
